Assay results from patent US20110105579A1, “Plant Health Composition” (priority 2008, published 2011).

What was measured:
[1] = tested on: Corn (Zea maydis var. M314A10) seedlings; assay: Cold tolerance of corn seedlings after seed treatment (seedling mortality after exposure to -5° C.); type: in vivo; conditions: for Observed efficacy (%) of cold tolerance GS 10 (3 hrs): % decrease of seedling mortality vs untreated control; for Observed efficacy (%) of cold tolerance GS 10 (3 hrs) / Seedling mortality (mean %) GS 10 (3 hrs): S8 2.5 g a.i./100 kg seed, Ia 1 g a.i./100 kg seed; for Seedling mortality (mean %) GS 10 (3 hrs): corn seed treatment, -5° C. for 3 hrs at growth stage 10, recorded 3 days after cold treatment, control 27
Method: Corn (Zea maydis var. M314A10) seeds were treated in a Hege 11 seed treater in a total slurry volume of 1000 ml/100 kg seed. Treatments comprised:
1) Water (control) 2) Pyraclostrobin (S8) (2.5 g a.i./100 kg); 3) Compound Ia (1 g a.i./100 kg); 4) Pyraclostrobin (S8) (2.5 g a.i./100 kg)+compound Ia (1 g a.i./100 kg).
CF Clear Binder (19 ml/100 kg seed) and color coat blue (13 ml/100 kg seed) were added to all treatments including the check. Following seed treatment, seeds were allowed to dry overnight. Seeds were planted in plastic pots (10 cm×10 cm×12 cm). Experiments were conducted using natural soil (sandy loam soil, source NC, U.S.A.). Pots were placed inside the greenhouse in a completely randomized design. Seedlings were grown at 25° C., until they reached growth stages 10 (first leaf through coleoptile, BBCH Scale). At growth stages 10, seedlings were placed in a completely randomized design in a low temperature incubator (Thermo Electron Corporation) and exposed to −5° C. during 3 hrs. At the time of cold exposure, pots were at field capacity. Percentage of seedling mortality for each treatment was recorded 3 days after the cold treatment.
The efficacy of induced cold tolerance (E) was calculated as % decrease of seedling mortality in the treatments compared to the untreated control:
a corresponds to the seedling mortality (%) of the treated plants and b corresponds to the seedling mortality (%) of the untreated (control) plants
The expected efficacy of the combination of the active compounds were estimated using Colby's formula (Colby, S. R., Calculating synergistic and antagonistic responses of herbicide combinations, Weeds, 15, pp. 20-22, 1967) and compared with the observed efficacy.
E=x+y−x·y/100 Colby's formula • E expected efficacy, expressed in % of the untreated control, when using the mixture of the active compounds A and B at the concentrations a and b • x efficacy, expressed in % of the untreated control, when using the active ingredient A at the concentration a • y efficacy, expressed in % of the untreated control, when using the active ingredient B at the concentration b

[2] = tested on: Soybeans, variety TMG 103 RR; assay: Soybean field trial: crop emergence and crop establishment after seed treatment (plant count per 5 m row); type: in vivo; conditions: for Observed efficacy (%) 12 days after planting / Observed efficacy (%) 33 days after planting: increase in number of plants vs control, S6 75, Ia 50 g a.i./100 kg seed; for Number of plants per 5 m distance (mean) 12 days after planting / Number of plants per 5 m distance (mean) 33 days after planting: soybean seed treatment, S6 75 g a.i./100 kg seed, Ia 50 g a.i./100 kg seed; for Number of plants per 5 m distance (mean) 12 days after planting: crop emergence, control 35; for Number of plants per 5 m distance (mean) 33 days after planting: crop establishment, control 34
Method: Soybeans were grown in 2008 in the Rondonopolis region, Mato Grosso, Brazil. The variety TMG 103 RR was planted at a seeding rate of 45 kg/ha. The trial was setup as randomized bloc design with 4 replications. Plot size was 10 m^2. The soybean seed was treated prior to planting with either orysastrobin (S6), compound Ia or was left untreated (Control). Compound Ia was used as an FS formulation (100 g a.i./L) with a dose rate of 500 ml/100 kg seed (50 g a.i./100 kg). Orysastrobin (S6) was applied as an FS formulation (250 g a.i./L) with a dose rate of 300 ml per 100 kg seed (75 g a.i./100 kg). In the combination treatments of compound Ia and orysastrobin, both formulations were applied in a sequence. The formulations were applied in a total slurry volume of […] of seed.
The observed efficacy (E) of the compounds on crop emergence and crop establishment as an indicator of plant vitality and plant vigor was determined by counting the plants in a row on a distance of 5 m at 12 and 33 days after planting.
The efficacy of the fungicidal treatments was calculated as the increase in the number of plants in the treatments compared to the control (%):
a corresponds to the number in the treated and b corresponds to the number of plants in the untreated (control) plots
The expected efficacy of the combination of the active compounds was estimated using Colby's formula (see example 1 above)

SMILES | Observed efficacy (%) of cold tolerance GS 10 (3 hrs) [1] [%] | Seedling mortality (mean %) GS 10 (3 hrs) [1] | seedling mortality, as an indicator of plant vigor (in words) ([1]; vs water control, table 4) | Observed efficacy (%) 12 days after planting [2] [%] | Observed efficacy (%) 33 days after planting [2] [%] | Number of plants per 5 m distance (mean) 12 days after planting [2] | Number of plants per 5 m distance (mean) 33 days after planting [2] | number of plants, as an indicator of plant vigor (in words) ([2]; vs untreated control, table 6)
Cn1cc(C(=O)Nc2ccccc2-c2cc(F)c(F)c(F)c2)c(C(F)F)n1 [Compound Ia, N-(3′,4′,5′-trifluorobiphenyl-2-yl)-3-difluoromethyl-1-methyl-1H-pyrazole-4-carboxamide] | 15 | 23 (b) % | significantly decreased | 40.0 | 32.3 | 49 | 45 | significantly increased
CNC(=O)/C(=N/OC)c1ccccc1CO/N=C(C)/C(=N/OC)C(/C)=N/OC [Orysastrobin (S6), orysastrobin, reference compound] | – | – | – | 57.1 | 52.9 | 55 | 52 | –
COC(=O)N(OC)c1ccccc1COc1ccn(-c2ccc(Cl)cc2)n1 [Pyraclostrobin (S8), pyraclostrobin, reference compound] | 22 | 21 (c) % | – | – | – | – | – | –
